# Assay results: the supplement of paper PMC10331698
# ± gives the standard deviation of the averaged measurements.
# Key:
# Test in all cases: level (log10 ratio to DMSO vehicle control); higher = higher biomarker level / cell amount than vehicle control
# [1] = compound: C=CC(=O)OCC(F)(F)C(F)(F)C(F)(F)C(F)(F)C(F)(F)C(F)(F)C(F)(F)C(F)F [1H,1H,9H-Perfluorononyl acrylate]; details: in DMSO
# Procedure: (§1)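 BioMAP Diversity Plus panel of 12 human primary cell co-culture systems (3C, 4H, LPS, SAg, BT, BF4T, BE3C, CASM3C, HDF3CGF, KF3CT, MyoF, Mphg). Compounds were added 1 h before stimulation and left for 24 h (MyoF 48 h; BT 72 h for soluble read-outs or 6 d for IgG). Biomarkers were read by ELISA, cytotoxicity by SRB, PBMC viability and proliferation by Alamar Blue. Each well value was divided by the mean of 8 DMSO control wells on the same plate and log10 transformed; duplicate blinded samples were tested at 4 concentrations.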
# [2] = compound: OCCC(F)(F)C(F)(F)C(F)(F)C(F)(F)C(F)(F)C(F)(F)C(F)(F)C(F)(F)F [8:2 Fluorotelomer alcohol]; details: 6700 nM; in DMSO
# Procedure: as §1
# [3] = compound: O=C(CC(=O)C(F)(F)C(F)(F)C(F)(F)F)c1cccs1 [(Perfluorobutyryl)-2-thenoylmethane]; details: in DMSO
# Procedure: as §1
# [4] = compound: O=C(O)C(F)(F)C(F)(F)C(=O)O [Tetrafluorosuccinic acid]; details: in DMSO
# Procedure: as §1
# [5] = compound: OCCCC(F)(F)C(F)(F)C(F)(F)C(F)(F)C(F)(F)C(F)(F)C(F)(F)C(F)(F)F [3-(Perfluorooctyl)propanol]; details: 6700 nM; in DMSO
# Procedure: as §1
# [6] = compound: FC(F)(I)C(F)(F)C(F)(F)C(F)(F)C(F)(F)C(F)(F)I [1,6-Diiodoperfluorohexane]; details: 6700 nM; in DMSO
# Procedure: as §1
# [7] = compound: O=C(O)C(F)(F)C(F)(F)C(F)(F)C(F)(F)C(F)(F)C(F)(F)C(F)(F)F [Perfluorooctanoic acid]; details: in DMSO
# Procedure: as §1
# [8] = compound: C=CC(=O)OCC(F)(F)C(F)(F)C(F)(F)C(F)(F)COC(=O)C=C [1H,1H,6H,6H-Perfluorohexane-1,6-diol diacrylate]; details: 6700 nM; in DMSO
# Procedure: as §1
# [9] = compound: O=C(O)C(F)(F)C(F)(F)C(F)(F)C(F)(F)C(F)(F)C(F)(F)C(F)(F)F [Ammonium perfluorooctanoate]; details: in DMSO
# Procedure: as §1
Test System,level (log10) ([1]; 6700 nM),level (log10) ([1]; 20000 nM),level (log10) ([1]; 60000 nM),level (log10) [2],level (log10) ([3]; 6700 nM),level (log10) ([3]; 20000 nM),level (log10) ([4]; 6700 nM),level (log10) ([4]; 20000 nM),level (log10) ([4]; 60000 nM),level (log10) [5],level (log10) [6],level (log10) ([7]; 6700 nM),level (log10) ([7]; 20000 nM),level (log10) ([7]; 60000 nM),level (log10) [8],level (log10) ([9]; 6700 nM),level (log10) ([9]; 20000 nM),level (log10) ([9]; 60000 nM)
SAg:SRB,-0.0035 ± 0.0035,-0.0055 ± 0.0021,-0.007 ± 0.021,-0.0185 ± 0.00071,-0.012 ± 0.013,-0.0845 ± 0.0021,-0.016 ± 0.023,-0.015 ± 0.011,-0.0225 ± 0.015,-0.009 ± 0.0071,0.011,-0.018 ± 0.013,0.0045 ± 0.012,-0.053 ± 0.017,-0.0115 ± 0.005,-0.013 ± 0.0042,-0.012 ± 0.0057,-0.034 ± 0.0042
BE3C:CXCL9/MIG,0.008 ± 0.0028,0.0055 ± 0.0078,0.0035 ± 0.0021,-0.0095 ± 0.00071,-0.0095 ± 0.016,-0.142 ± 0.0028,0.005 ± 0.0071,0 ± 0.0085,0.0075 ± 0.0092,-0.0045 ± 0.018,0.01,-0.0025 ± 0.0035,-0.0045 ± 0.005,0.002 ± 0.018,-0.0075 ± 0.011,0.008 ± 0.011,-0.003 ± 0.0042,-0.003 ± 0.0028
BT:sIL-17A,-0.174 ± 0.019,-0.509 ± 0.17,-1.28 ± 0.4,-0.034 ± 0.12,-0.135 ± 0.17,-0.524 ± 0.047,-0.0215 ± 0.084,-0.0995 ± 0.00071,-0.074 ± 0.021,0.023 ± 0.028,-0.079,0.009 ± 0.048,-0.165 ± 0.11,-0.0845 ± 0.12,-0.863 ± 0.015,-0.168 ± 0.2,-0.0675 ± 0.037,-0.282 ± 0.23
BF4T:SRB,-0.0045 ± 0.005,-0.001 ± 0.016,0.0065 ± 0.021,-0.0095 ± 0.0035,-0.023 ± 0.0085,-0.057 ± 0.0042,-0.0035 ± 0.0021,-0.005 ± 0.0028,-0.0025 ± 0.00071,-0.0075 ± 0.0021,-0.016,-0.008 ± 0.0099,0.0015 ± 0.0064,-0.0005 ± 0.013,-0.01 ± 0.0014,-0.0085 ± 0.005,-0.002 ± 0.0042,0.0005 ± 0.016
4H:SRB,-0.008 ± 0.0042,-0.008 ± 0.0014,-0.0235 ± 0.0021,-0.014 ± 0.0042,-0.0255 ± 0.00071,-0.136 ± 0.0021,-0.0005 ± 0.023,0.001 ± 0.0085,-0.0185 ± 0.011,-0.0015 ± 0.00071,0.009,-0.013 ± 0.0071,-0.004 ± 0.023,-0.038 ± 0.031,-0.0075 ± 0.0035,-0.004 ± 0.011,-0.0115 ± 0.005,-0.0245 ± 0.0078
BE3C:CD54/ICAM-1,-0.01 ± 0.0042,-0.0095 ± 0.013,-0.0165 ± 0.011,0.001 ± 0.0099,-0.0075 ± 0.0064,-0.102 ± 0.0064,0.0015 ± 0.025,0.0065 ± 0.00071,0.0115 ± 0.00071,0.023 ± 0.0071,0.001,-0.02 ± 0.0085,-0.0085 ± 0.0035,0.0235 ± 0.039,-0.021 ± 0.024,-0.01 ± 0.014,-0.0085 ± 0.0021,-0.0015 ± 0.015
3C:HLA-DR,-0.002 ± 0.0085,0.0155 ± 0.0021,-0.0055 ± 0.005,-0.0245 ± 0.018,-0.093 ± 0.045,-0.511 ± 0.026,0.0005 ± 0.025,-0.0075 ± 0.0021,-0.0045 ± 0.032,-0.03 ± 0.0028,-0.005,0.0035 ± 0.0092,-0.008 ± 0.028,0.0155 ± 0.043,-0.025 ± 0.011,-0.005 ± 0.0042,0 ± 0.0014,0.004 ± 0.016
BF4T:CD106/VCAM-1,-0.007 ± 0.0071,-0.0165 ± 0.04,0.0185 ± 0.066,-0.0905 ± 0.023,0.0215 ± 0.052,-0.236 ± 0.063,0.0205 ± 0.0092,-0.0155 ± 0.029,-0.033 ± 0.021,-0.014 ± 0.0099,-0.041,-0.037 ± 0.017,-0.0345 ± 0.032,0 ± 0.065,-0.132 ± 0.016,-0.0315 ± 0.021,-0.0315 ± 0.0064,-0.032 ± 0.017
LPS:CD69,-0.0345 ± 0.011,-0.062 ± 0.011,-0.102 ± 0.023,-0.063 ± 0.11,-0.132 ± 0.0014,-0.0555 ± 0.07,-0.0265 ± 0.0035,-0.0405 ± 0.0092,-0.029 ± 0.025,-0.011 ± 0.016,-0.019,0.0445 ± 0.096,0.0475 ± 0.046,-0.025 ± 0.092,-0.052 ± 0.023,-0.0165 ± 0.012,-0.045 ± 0.0085,-0.142 ± 0.031
4H:CCL26/Eotaxin-3,-0.0045 ± 0.0035,-0.016 ± 0.031,-0.052 ± 0.024,0.017 ± 0.054,-0.041 ± 0.0057,-0.241 ± 0.016,0.0025 ± 0.049,-0.037 ± 0.064,0.0315 ± 0.018,-0.009 ± 0.0042,-0.037,0.0215 ± 0.087,-0.022 ± 0.12,-0.0255 ± 0.14,-0.0435 ± 0.005,-0.005 ± 0.0028,-0.013 ± 0.0057,-0.0385 ± 0.028
SAg:CD69,-0.0475 ± 0.028,-0.0395 ± 0.03,-0.099 ± 0.018,-0.018 ± 0.018,-0.128 ± 0.02,-0.166 ± 0.0085,0.012 ± 0.061,0.0055 ± 0.025,0.023 ± 0.02,-0.036 ± 0.014,-0.026,-0.0095 ± 0.0035,-0.0265 ± 0.011,-0.0355 ± 0.016,-0.0645 ± 0.029,-0.0115 ± 0.00071,-0.026 ± 0.0014,-0.062 ± 0.0085
LPS:CD106/VCAM-1,-0.002 ± 0.011,-0.0365 ± 0.019,-0.0565 ± 0.0021,-0.0785 ± 0.042,-0.0045 ± 0.011,-0.023 ± 0.031,-0.0245 ± 0.026,-0.007 ± 0.0057,0.002 ± 0.018,-0.158 ± 0.17,-0.041,0.0085 ± 0.0021,-0.006 ± 0.013,-0.0165 ± 0.0035,-0.048 ± 0.0099,0.001 ± 0.0042,0.0035 ± 0.015,-0.013 ± 0.0028
SAg:CXCL8/IL-8,-0.068 ± 0.0028,-0.0845 ± 0.026,-0.0975 ± 0.14,-0.0115 ± 0.047,-0.169 ± 0.058,-0.177 ± 0.0085,-0.0345 ± 0.039,-0.044 ± 0.021,-0.006 ± 0.064,-0.0165 ± 0.028,-0.012,0.015 ± 0.016,0.0165 ± 0.028,0.0745 ± 0.029,-0.102 ± 0.011,-0.0325 ± 0.026,0.007 ± 0.013,0.127 ± 0.16
LPS:CD40,-0.001 ± 0.05,-0.0785 ± 0.029,-0.181 ± 0.064,-0.068 ± 0.014,-0.0095 ± 0.071,-0.0805 ± 0.083,-0.016 ± 0.0028,-0.0185 ± 0.0092,-0.007 ± 0.014,-0.039 ± 0.018,-0.009,0.006 ± 0.025,-0.032 ± 0.057,-0.0815 ± 0.022,-0.1475 ± 0.00071,0.024 ± 0.025,0.0265 ± 0.088,-0.117 ± 0.093
LPS:CD142/Tissue Factor,0.019 ± 0.025,0.0415 ± 0.026,-0.015 ± 0.013,-0.0205 ± 0.1,-0.004 ± 0.093,0.323 ± 0.0028,-0.001 ± 0.047,-0.0155 ± 0.079,0.014 ± 0.037,-0.126 ± 0.066,0.019,0.0445 ± 0.056,0.008 ± 0.089,0.042 ± 0.017,-0.0415 ± 0.00071,0.016 ± 0.03,0.0045 ± 0.016,0.0105 ± 0.015
LPS:M-CSF,0.0015 ± 0.032,-0.0025 ± 0.0092,-0.0265 ± 0.057,-0.06 ± 0.13,0.004 ± 0.085,-0.046 ± 0.072,-0.0255 ± 0.0078,-0.018 ± 0.014,0.0335 ± 0.047,-0.073 ± 0.03,-0.008,0.0255 ± 0.054,-0.016 ± 0.1,0.06 ± 0.078,-0.021 ± 0.021,0.0145 ± 0.023,0.005 ± 0.031,0.007 ± 0.018
